Legend:
Experiment in all cases: KINOMEscan competition binding
Settings in all cases: compound 10.0 µM
CAMK2B (human) = CAMK2B (human) (UniProt Q13554)
PRKX (human) = PRKX (human) (UniProt P51817)
STK25 (human) = STK25 (human) (UniProt O00506)
TTK (human) = TTK (human) (UniProt P33981)
PRKACA (human) = PRKACA (human) (UniProt P17612)
EPHA8 (human) = EPHA8 (human) (UniProt P29322)
[1] = test system: RET (human), P07949 [M918T]
MAP4K1 (human) = MAP4K1 (human) (UniProt Q92918)
TXK (human) = TXK (human) (UniProt P42681)
MYLK3 (human) = MYLK3 (human) (UniProt Q32MK0)
DAPK1 (human) = DAPK1 (human) (UniProt P53355)
MAP4K4 (human) = MAP4K4 (human) (UniProt O95819)
[2] = molecular target: TYK2 JH1 catalytic (human) (UniProt P29597)
PTK6 (human) = PTK6 (human) (UniProt Q13882)
INSR (human) = INSR (human) (UniProt P06213)
TNK2 (human) = TNK2 (human) (UniProt Q07912)
MAP3K2 (human) = MAP3K2 (human) (UniProt Q9Y2U5)
PAK3 (human) = PAK3 (human) (UniProt O75914)
MERTK (human) = MERTK (human) (UniProt Q12866)
MAP2K3 (human) = MAP2K3 (human) (UniProt P46734)
PI4KB (human) = PI4KB (human) (UniProt Q9UBF8)
SLK (human) = SLK (human) (UniProt Q9H2G2)
[3] = test system: FLT3 (human), P36888 [D835H]
NEK1 (human) = NEK1 (human) (UniProt Q96PY6)
CSNK1A1 (human) = CSNK1A1 (human) (UniProt P48729)
CDK3 (human) = CDK3 (human) (UniProt Q00526)
CHUK (human) = CHUK (human) (UniProt O15111)
PHKG2 (human) = PHKG2 (human) (UniProt P15735)
MYO3A (human) = MYO3A (human) (UniProt Q8NEV4)
CLK4 (human) = CLK4 (human) (UniProt Q9HAZ1)
WEE1 (human) = WEE1 (human) (UniProt P30291)
CSNK1G1 (human) = CSNK1G1 (human) (UniProt Q9HCP0)
LATS1 (human) = LATS1 (human) (UniProt O95835)
MYO3B (human) = MYO3B (human) (UniProt Q8WXR4)
PIK3C2B (human) = PIK3C2B (human) (UniProt O00750)
ANKK1 (human) = ANKK1 (human) (UniProt Q8NFD2)
CDK2 (human) = CDK2 (human) (UniProt P24941)
PRKCI (human) = PRKCI (human) (UniProt P41743)
TRPM6 (human) = TRPM6 (human) (UniProt Q9BX84)
RPS6KA6 KD1 (human) = RPS6KA6 KD1 (human) (UniProt Q9UK32)
RPS6KA6 KD1 (human), sequence (Q9UK32 whole entry, looked up): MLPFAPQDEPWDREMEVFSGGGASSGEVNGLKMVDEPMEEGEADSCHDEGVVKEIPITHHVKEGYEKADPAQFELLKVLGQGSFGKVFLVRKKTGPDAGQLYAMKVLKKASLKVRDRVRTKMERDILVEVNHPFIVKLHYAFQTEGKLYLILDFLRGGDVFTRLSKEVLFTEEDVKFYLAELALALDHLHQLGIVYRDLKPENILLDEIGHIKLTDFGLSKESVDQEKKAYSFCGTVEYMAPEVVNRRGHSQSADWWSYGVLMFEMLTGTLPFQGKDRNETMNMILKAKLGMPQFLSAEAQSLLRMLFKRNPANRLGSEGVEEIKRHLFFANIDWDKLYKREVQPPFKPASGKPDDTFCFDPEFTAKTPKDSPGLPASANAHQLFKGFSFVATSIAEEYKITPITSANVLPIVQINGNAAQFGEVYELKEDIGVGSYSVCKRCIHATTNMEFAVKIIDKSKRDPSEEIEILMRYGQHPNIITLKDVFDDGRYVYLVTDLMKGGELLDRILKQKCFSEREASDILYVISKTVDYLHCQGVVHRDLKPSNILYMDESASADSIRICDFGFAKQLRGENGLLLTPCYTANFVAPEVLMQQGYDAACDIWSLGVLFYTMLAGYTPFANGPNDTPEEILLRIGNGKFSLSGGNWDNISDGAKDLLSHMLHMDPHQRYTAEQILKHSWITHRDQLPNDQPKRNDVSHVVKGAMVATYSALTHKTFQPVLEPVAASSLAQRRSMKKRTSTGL

SLK (human), sequence (Q9H2G2 whole entry, looked up): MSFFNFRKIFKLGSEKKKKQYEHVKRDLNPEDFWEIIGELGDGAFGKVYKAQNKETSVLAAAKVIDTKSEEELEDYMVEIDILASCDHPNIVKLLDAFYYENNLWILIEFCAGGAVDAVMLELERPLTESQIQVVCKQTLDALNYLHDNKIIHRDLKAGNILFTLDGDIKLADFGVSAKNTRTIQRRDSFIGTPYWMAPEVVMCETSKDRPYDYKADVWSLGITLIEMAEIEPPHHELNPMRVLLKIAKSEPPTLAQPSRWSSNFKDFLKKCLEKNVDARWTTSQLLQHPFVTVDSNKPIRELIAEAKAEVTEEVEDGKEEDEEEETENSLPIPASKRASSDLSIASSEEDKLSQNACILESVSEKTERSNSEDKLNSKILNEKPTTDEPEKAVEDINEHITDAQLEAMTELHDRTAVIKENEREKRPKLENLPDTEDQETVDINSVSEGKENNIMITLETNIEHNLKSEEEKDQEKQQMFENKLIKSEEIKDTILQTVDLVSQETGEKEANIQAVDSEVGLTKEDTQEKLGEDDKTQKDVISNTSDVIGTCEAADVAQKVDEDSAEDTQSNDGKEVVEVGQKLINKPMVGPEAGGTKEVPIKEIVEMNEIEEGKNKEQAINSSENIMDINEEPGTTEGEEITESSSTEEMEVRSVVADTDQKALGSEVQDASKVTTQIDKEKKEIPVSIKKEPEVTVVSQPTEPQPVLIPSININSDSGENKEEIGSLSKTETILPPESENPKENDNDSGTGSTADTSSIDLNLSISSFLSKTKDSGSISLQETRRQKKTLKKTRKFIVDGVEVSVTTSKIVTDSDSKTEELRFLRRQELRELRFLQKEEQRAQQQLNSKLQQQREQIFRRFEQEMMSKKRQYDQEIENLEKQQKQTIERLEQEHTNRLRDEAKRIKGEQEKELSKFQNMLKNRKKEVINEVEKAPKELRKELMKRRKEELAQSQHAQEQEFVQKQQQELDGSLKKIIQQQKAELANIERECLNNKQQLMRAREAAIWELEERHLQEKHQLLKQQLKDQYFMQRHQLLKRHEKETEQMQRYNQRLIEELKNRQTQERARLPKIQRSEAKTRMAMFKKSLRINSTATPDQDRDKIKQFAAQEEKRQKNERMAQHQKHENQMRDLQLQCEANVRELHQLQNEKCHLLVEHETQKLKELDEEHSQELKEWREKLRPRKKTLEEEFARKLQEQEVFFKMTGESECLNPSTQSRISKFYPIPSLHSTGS
PTK6 (human), sequence (Q13882 whole entry, looked up): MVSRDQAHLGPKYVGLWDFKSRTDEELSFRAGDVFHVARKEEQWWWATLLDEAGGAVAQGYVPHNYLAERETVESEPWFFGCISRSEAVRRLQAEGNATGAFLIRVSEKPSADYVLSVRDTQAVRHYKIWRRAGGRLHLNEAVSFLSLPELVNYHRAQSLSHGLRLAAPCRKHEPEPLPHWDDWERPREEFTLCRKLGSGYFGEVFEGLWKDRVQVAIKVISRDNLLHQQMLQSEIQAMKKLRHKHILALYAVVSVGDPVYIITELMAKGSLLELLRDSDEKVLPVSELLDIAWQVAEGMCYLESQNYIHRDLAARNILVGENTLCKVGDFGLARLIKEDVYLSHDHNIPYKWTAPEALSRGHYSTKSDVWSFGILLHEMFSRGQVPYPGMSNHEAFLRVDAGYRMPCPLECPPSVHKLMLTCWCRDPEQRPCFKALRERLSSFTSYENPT
MAP3K2 (human), sequence (Q9Y2U5 whole entry, looked up): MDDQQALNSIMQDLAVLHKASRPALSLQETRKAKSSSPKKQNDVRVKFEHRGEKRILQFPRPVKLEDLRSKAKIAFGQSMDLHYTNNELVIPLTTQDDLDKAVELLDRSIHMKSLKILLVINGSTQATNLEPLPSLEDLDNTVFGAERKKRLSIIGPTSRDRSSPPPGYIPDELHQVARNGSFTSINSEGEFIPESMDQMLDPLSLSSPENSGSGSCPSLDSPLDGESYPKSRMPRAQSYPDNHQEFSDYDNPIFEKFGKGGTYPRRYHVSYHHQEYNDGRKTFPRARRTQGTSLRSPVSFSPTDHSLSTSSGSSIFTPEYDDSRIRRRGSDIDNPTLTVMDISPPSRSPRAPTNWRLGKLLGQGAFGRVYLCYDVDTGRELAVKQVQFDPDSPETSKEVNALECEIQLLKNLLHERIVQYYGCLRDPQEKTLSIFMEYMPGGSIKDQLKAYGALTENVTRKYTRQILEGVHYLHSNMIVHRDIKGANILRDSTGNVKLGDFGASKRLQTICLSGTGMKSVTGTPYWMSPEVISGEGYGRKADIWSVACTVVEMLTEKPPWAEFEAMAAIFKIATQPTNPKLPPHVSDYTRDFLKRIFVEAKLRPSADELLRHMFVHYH
CSNK1G1 (human), sequence (Q9HCP0 whole entry, looked up): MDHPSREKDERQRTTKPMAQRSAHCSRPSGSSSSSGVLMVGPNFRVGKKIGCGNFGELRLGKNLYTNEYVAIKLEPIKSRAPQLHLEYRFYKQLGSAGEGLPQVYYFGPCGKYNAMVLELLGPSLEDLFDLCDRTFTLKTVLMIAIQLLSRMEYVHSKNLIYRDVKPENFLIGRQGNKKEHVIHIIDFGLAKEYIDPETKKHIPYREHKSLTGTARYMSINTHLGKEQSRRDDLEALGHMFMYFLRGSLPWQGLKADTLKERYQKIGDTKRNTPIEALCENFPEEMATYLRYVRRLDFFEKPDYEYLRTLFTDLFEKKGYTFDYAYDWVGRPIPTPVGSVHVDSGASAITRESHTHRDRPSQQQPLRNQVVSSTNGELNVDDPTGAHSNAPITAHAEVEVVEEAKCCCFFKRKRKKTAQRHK
NEK1 (human), sequence (Q96PY6 whole entry, looked up): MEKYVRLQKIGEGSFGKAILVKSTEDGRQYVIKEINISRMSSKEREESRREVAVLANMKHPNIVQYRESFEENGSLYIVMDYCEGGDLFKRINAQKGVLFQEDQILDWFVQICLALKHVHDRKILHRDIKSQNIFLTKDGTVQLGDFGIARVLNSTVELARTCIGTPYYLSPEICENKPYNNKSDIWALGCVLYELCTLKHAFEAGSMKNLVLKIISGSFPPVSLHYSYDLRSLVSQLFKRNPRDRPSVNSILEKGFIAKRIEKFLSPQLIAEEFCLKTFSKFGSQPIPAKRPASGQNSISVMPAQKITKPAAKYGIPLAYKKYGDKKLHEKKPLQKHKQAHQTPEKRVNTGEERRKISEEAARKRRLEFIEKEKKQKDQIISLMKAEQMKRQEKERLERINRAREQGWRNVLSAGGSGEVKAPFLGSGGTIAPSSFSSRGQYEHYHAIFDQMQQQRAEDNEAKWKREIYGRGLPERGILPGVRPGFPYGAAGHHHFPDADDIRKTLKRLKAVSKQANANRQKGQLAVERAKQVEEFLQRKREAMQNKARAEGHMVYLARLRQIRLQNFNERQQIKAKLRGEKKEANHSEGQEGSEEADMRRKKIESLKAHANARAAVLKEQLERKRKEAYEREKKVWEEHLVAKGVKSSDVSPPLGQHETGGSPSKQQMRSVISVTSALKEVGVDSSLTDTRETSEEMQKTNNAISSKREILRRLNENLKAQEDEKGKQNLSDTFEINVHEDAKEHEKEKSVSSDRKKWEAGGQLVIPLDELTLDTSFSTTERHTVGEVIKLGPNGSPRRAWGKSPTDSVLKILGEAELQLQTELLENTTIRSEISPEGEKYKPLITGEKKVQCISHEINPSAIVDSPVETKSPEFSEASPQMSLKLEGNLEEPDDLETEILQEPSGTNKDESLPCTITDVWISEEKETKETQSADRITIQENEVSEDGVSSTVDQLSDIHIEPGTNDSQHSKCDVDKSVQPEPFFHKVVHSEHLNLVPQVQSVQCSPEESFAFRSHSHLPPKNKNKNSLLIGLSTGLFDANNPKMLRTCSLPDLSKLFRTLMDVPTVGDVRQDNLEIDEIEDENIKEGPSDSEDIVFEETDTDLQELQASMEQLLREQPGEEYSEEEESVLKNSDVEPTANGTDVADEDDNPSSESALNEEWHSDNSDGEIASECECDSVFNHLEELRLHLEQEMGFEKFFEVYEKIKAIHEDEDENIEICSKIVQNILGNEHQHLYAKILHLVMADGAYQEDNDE
CSNK1A1 (human), sequence (P48729 whole entry, looked up): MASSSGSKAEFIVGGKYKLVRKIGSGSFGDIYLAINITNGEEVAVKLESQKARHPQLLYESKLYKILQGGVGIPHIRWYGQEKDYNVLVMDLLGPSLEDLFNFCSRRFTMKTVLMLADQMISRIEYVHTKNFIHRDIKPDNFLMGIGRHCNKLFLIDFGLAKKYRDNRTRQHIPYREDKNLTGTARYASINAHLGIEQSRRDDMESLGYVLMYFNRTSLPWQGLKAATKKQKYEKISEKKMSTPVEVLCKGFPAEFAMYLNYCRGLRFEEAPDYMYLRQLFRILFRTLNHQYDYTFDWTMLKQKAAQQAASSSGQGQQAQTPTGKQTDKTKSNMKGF

Compound | kinase still bound, per cent of control (CAMK2B (human)) [%] | kinase still bound, per cent of control (PRKX (human)) [%] | kinase still bound, per cent of control (STK25 (human)) [%] | kinase still bound, per cent of control (TTK (human)) [%] | kinase still bound, per cent of control (PRKACA (human)) [%] | kinase still bound, per cent of control (EPHA8 (human)) [%] | kinase still bound, per cent of control [1] [%] | kinase still bound, per cent of control (MAP4K1 (human)) [%] | kinase still bound, per cent of control (TXK (human)) [%] | kinase still bound, per cent of control (MYLK3 (human)) [%] | kinase still bound, per cent of control (DAPK1 (human)) [%] | kinase still bound, per cent of control (MAP4K4 (human)) [%] | kinase still bound, per cent of control [2] [%] | kinase still bound, per cent of control (PTK6 (human)) [%] | kinase still bound, per cent of control (INSR (human)) [%] | kinase still bound, per cent of control (TNK2 (human)) [%] | kinase still bound, per cent of control (MAP3K2 (human)) [%] | kinase still bound, per cent of control (PAK3 (human)) [%] | kinase still bound, per cent of control (MERTK (human)) [%] | kinase still bound, per cent of control (MAP2K3 (human)) [%] | also measured
C=CC(=O)Nc1cc(-n2c(=O)ccc3cnc4ccc(-c5cn[nH]c5)cc4c32)ccc1C | 44 | 100 | 70 | 21 | 100 | 96 | 51 | 90 | 7 | 100 | 70 | 60 | 29 | 100 | 90 | 100 | 88 | 81 | 100 | 8.6 | kinase still bound, per cent of control (PI4KB (human)): 2.3%; kinase still bound, per cent of control (SLK (human)): 100%; kinase still bound, per cent of control [3]: 14%; kinase still bound, per cent of control (NEK1 (human)): 93%; kinase still bound, per cent of control (CSNK1A1 (human)): 81%; kinase still bound, per cent of control (CDK3 (human)): 100%; kinase still bound, per cent of control (CHUK (human)): 100%; kinase still bound, per cent of control (PHKG2 (human)): 79%; kinase still bound, per cent of control (MYO3A (human)): 94%; kinase still bound, per cent of control (CLK4 (human)): 3%; kinase still bound, per cent of control (WEE1 (human)): 100%; kinase still bound, per cent of control (CSNK1G1 (human)): 86%; kinase still bound, per cent of control (LATS1 (human)): 100%; kinase still bound, per cent of control (MYO3B (human)): 100%; kinase still bound, per cent of control (PIK3C2B (human)): 53%; kinase still bound, per cent of control (ANKK1 (human)): 82%; kinase still bound, per cent of control (CDK2 (human)): 84%; kinase still bound, per cent of control (PRKCI (human)): 99%; kinase still bound, per cent of control (TRPM6 (human)): 71%; kinase still bound, per cent of control (RPS6KA6 KD1 (human)): 74%
CN(C)C/C=C/C(=O)Nc1ccc(C(=O)Nc2cccc(Nc3nccc(-c4cccnc4)n3)c2)cc1 | 60 | 100 | 83 | 77 | 100 | 91 | 70 | 100 | 67 | 87 | 58 | 18 | 15 | 100 | 74 | 100 | 79 | 100 | 100 | 24 | kinase still bound, per cent of control (PI4KB (human)): 51%; kinase still bound, per cent of control (SLK (human)): 98%; kinase still bound, per cent of control [3]: 28%; kinase still bound, per cent of control (NEK1 (human)): 63%; kinase still bound, per cent of control (CSNK1A1 (human)): 27%; kinase still bound, per cent of control (CDK3 (human)): 96%; kinase still bound, per cent of control (CHUK (human)): 54%; kinase still bound, per cent of control (PHKG2 (human)): 56%; kinase still bound, per cent of control (MYO3A (human)): 73%; kinase still bound, per cent of control (CLK4 (human)): 2.2%; kinase still bound, per cent of control (WEE1 (human)): 100%; kinase still bound, per cent of control (CSNK1G1 (human)): 0.5%; kinase still bound, per cent of control (LATS1 (human)): 100%; kinase still bound, per cent of control (MYO3B (human)): 100%; kinase still bound, per cent of control (PIK3C2B (human)): 100%; kinase still bound, per cent of control (ANKK1 (human)): 8.1%; kinase still bound, per cent of control (CDK2 (human)): 100%; kinase still bound, per cent of control (PRKCI (human)): 100%; kinase still bound, per cent of control (TRPM6 (human)): 100%; kinase still bound, per cent of control (RPS6KA6 KD1 (human)): 51%
O=C(Nc1cccc(Nc2ncc(Br)c(NCCc3cnc[nH]3)n2)c1)N1CCCC1 | 35 | 0.2 | 30 | 5 | 0.95 | 94 | 0.05 | 13 | 17 | 0.1 | 1.2 | 2.4 | 0 | 45 | 27 | 18 | 0.25 | 2.6 | 0.5 | 23 | kinase still bound, per cent of control (PI4KB (human)): 35%; kinase still bound, per cent of control (SLK (human)): 0.35%; kinase still bound, per cent of control [3]: 0.2%; kinase still bound, per cent of control (NEK1 (human)): 30%; kinase still bound, per cent of control (CSNK1A1 (human)): 28%; kinase still bound, per cent of control (CDK3 (human)): 62%; kinase still bound, per cent of control (CHUK (human)): 4.1%; kinase still bound, per cent of control (PHKG2 (human)): 8.9%; kinase still bound, per cent of control (MYO3A (human)): 28%; kinase still bound, per cent of control (CLK4 (human)): 28%; kinase still bound, per cent of control (WEE1 (human)): 52%; kinase still bound, per cent of control (CSNK1G1 (human)): 54%; kinase still bound, per cent of control (LATS1 (human)): 21%; kinase still bound, per cent of control (MYO3B (human)): 93%; kinase still bound, per cent of control (PIK3C2B (human)): 89%; kinase still bound, per cent of control (ANKK1 (human)): 4.3%; kinase still bound, per cent of control (CDK2 (human)): 43%; kinase still bound, per cent of control (PRKCI (human)): 45%; kinase still bound, per cent of control (TRPM6 (human)): 76%; kinase still bound, per cent of control (RPS6KA6 KD1 (human)): 0.6%

Source: the kinase profiling compilation of Christmann-Franck et al. (2016)
